As usually defined, the IC50 is the midpoint of a concentration-inhibition curve.

The structures appear in SMILES notation. Structures can show the parent of a compound that is named as a salt.

One assay relates to IL-4 stimulated expression of CD23 in human Ramos B cells (JAK-1 and JAK-3). The experiment in a line: Assay for Ramos B-Cell Line Stimulated with IL-4 (CD23 upregulation, FACS). Conditions: Homo sapiens, Ramos, Ramos B cells stimulated with IL-4, CD23 expression by FACS; read-out: IC50, Example 41. In kind it is cell-based. The method in brief: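 Log-phase Ramos cells, 1 h compound pre-incubation at 37 °C; IL-4 50 units/mL final, 20-24 h; CD23-PE stain, FACS; IC50.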
In general terms: A flow cytometer gives signals particle by particle.
On to `COc1ccc(N(C)c2nc(Nc3ccc(C)c(S(N)(=O)=O)c3)ncc2F)cc1Cl` [VI-19, N2-(3-Aminosulfonyl-4-methylphenyl)-N4-(3-chloro-4-methoxyphenyl)-5-fluoro-N4-methyl-2,4-pyrimidinediamine], for which the IC50 was 1.03 µM.

`COc1ccc(N(C)c2nc(Nc3cc(C)c(F)c(S(N)(=O)=O)c3)ncc2F)cc1Cl` [VI-20, N2-(3-Aminosulfonyl-4-fluoro-5-methylphenyl)-N4-(3-chloro-4-methoxyphenyl)-5-fluoro-N4-methyl-2,4-pyrimidinediamine]: the IC50 came to 0.726 µM. Same read-out and setting: next, `COc1ccc(N(C)c2nc(Nc3cc(C)c(Cl)c(S(N)(=O)=O)c3)ncc2F)cc1Cl` [VI-21, N2-(3-Aminosulfonyl-4-chloro-5-methylphenyl)-N4-(3-chloro-4-methoxyphenyl)-5-fluoro-N4-methyl-2,4-pyrimidinediamine]: 11.3 µM; `CCCN(c1ccc(OC)c(Cl)c1)c1nc(Nc2ccc(C)c(S(N)(=O)=O)c2)ncc1F` [VI-22, N2-(3-Aminosulfonyl-4-methylphenyl)-N4-(3-chloro-4-methoxyphenyl)-5-fluoro-N4-propyl-2,4-pyrimidinediamine]: 0.663 µM. On the same count and under the same terms, the same measure for `CCCN(c1ccc(OC)c(Cl)c1)c1nc(Nc2cc(C)c(F)c(S(N)(=O)=O)c2)ncc1F` [VI-23, N2-(3-Aminosulfonyl-4-fluoro-5-methylphenyl)-N4-(3-chloro-4-methoxyphenyl)-5-fluoro-N4-propyl-2,4-pyrimidinediamine]: 0.597 µM; for `COc1ccc(Nc2nc(Nc3ccncc3S(N)(=O)=O)ncc2F)cc1Cl` [VI-31, N2-(3-Aminosulfonylpyrid-4-yl)-N4-(3-chloro-4-methoxyphenyl)-5-fluoro-2,4-pyrimidinediamine]: 18.3 µM. Same read-out and setting: the same measure for `CCC(=O)NS(=O)(=O)c1cccc(Nc2ncc(F)c(Nc3ccc(CCOC(=O)N(C)C)cc3)n2)c1` [VI-64, N4-{4-[2-(Dimethylaminocarbonyloxy)ethyl]phenyl}-5-fluoro-N2-(3-propionylaminosulfonylphenyl)-2,4-pyrimidinediamine]: 5.8 µM; for `Cc1ccc(Nc2ncc(F)c(Nc3ccc(CCNC(N)=O)cc3)n2)cc1S(N)(=O)=O` [VI-71, N4-{4-[2-(Aminocarbonylamino)ethyl]phenyl}-N2-(3-aminosulfonyl-4-methylphenyl)-5-fluoro-2,4-pyrimidinediamine]: 1.07 µM; for `NC(=O)NCCc1ccc(Nc2nc(Nc3cccc(S(N)(=O)=O)c3)ncc2F)cc1` [VI-72, N4-{4-[2-(Aminocarbonylamino)ethyl]phenyl}-N2-(3-aminosulfonylphenyl)-5-fluoro-2,4-pyrimidinediamine]: 0.455 µM. As for `C#CCNS(=O)(=O)c1cccc(Nc2ncc(F)c(Nc3ccc(OCC#C)cc3)n2)c1` [VI-78, 5-Fluoro-N2-[3-(prop-2-ynylaminosulfonyl)phenyl]-N4-[4-(prop-2-ynyloxy)phenyl]-2,4-pyrimidinediamine], the IC50 is 0.161 µM. Same read-out and setting: the same measure for `C#CCNS(=O)(=O)c1cccc(Nc2nc(Nc3ccc(C)c(S(N)(=O)=O)c3)ncc2F)c1` [VI-79, N2-(3-Aminosulfonyl-4-methylphenyl)-5-fluoro-N4-[3-(prop-2-ynylaminosulfonyl)phenyl]-2,4-pyrimidinediamine]: 0.096 µM; for `C#CCNS(=O)(=O)c1cccc(Nc2nc(Nc3ccc(S(N)(=O)=O)cc3)ncc2F)c1` [VI-80, N2-(4-Aminosulfonylphenyl)-5-fluoro-N4-[3-(prop-2-ynylaminosulfonyl)phenyl]-2,4-pyrimidinediamine]: 0.36 µM; for `C#CCNS(=O)(=O)c1cccc(Nc2nc(Nc3cccc(S(N)(=O)=O)c3)ncc2F)c1` [VI-81, N2-(3-Aminosulfonylphenyl)-5-fluoro-N4-[3-(prop-2-ynylaminosulfonyl)phenyl]-2,4-pyrimidinediamine]: 3.17 µM. The same measure, in the same setting: the same measure for `CCCCNS(=O)(=O)c1cccc(Nc2ncc(F)c(Nc3ccc(C)c(C#N)c3)n2)c1` [VI-96, N2-(3-Butylaminosulfonylphenyl)-N4-(3-cyano-4-methylphenyl)-5-fluoro-2,4-pyrimidinediamine]: 0.803 µM; for `CCCCNS(=O)(=O)c1cccc(Nc2ncc(F)c(Nc3ccc(F)c(Cl)c3)n2)c1` [VI-97, N2-(3-Butylaminosulfonylphenyl)-N4-(3-chloro-4-fluorophenyl)5-fluoro-2,4-pyrimidinediamine]: 3.01 µM.

Turning to `NS(=O)(=O)c1cccc(Nc2ncc(F)c(Nc3ccc(O)cc3)n2)c1` [VI-101, N2-(3-Aminosulfonylphenyl)-5-fluoro-N4-(4-hydroxyphenyl)-2,4-pyrimidinediamine], the IC50 turned out to be 0.919 µM. Consider `CCC(=O)NS(=O)(=O)c1cc(Nc2ncc(F)c(Nc3ccc(CCC#N)c(C)c3)n2)ccc1C` [VI-103, N4-[4(2-Cyanoethyl)-3-methylphenyl]-5-fluoro-N2-(4-methyl-3-propionylaminosulfonylphenyl)-2,4-pyrimidinediamine], for which the IC50 was determined as 3.08 µM.

Still in this assay, the particulars now being: Ramos B cells stimulated with IL-4, CD23 expression by FACS; read-out: IC50, Example 41.
For `COC(=O)CNS(=O)(=O)c1cccc(Nc2ncc(F)c(Nc3ccc(Cl)c(Cl)c3)n2)c1` [VI-8, N4-(3,4-Dichlorophenyl)-5-fluoro-N2-[3-(N-methoxycarbonylmethylene)aminosulfonylphenyl]-2,4-pyrimidinediamine], the IC50 was 2.28 µM. On the same count and under the same terms, the same measure for `CCOC(=O)CN(c1ccc(OC)c(Cl)c1)c1nc(Nc2cccc(S(N)(=O)=O)c2)ncc1C(=O)OCC` [VI-24, N2-(3-Aminosulfonylphenyl)-5-carboethoxy-N4-(N-carboethoxymethylene-N-3-chloro-4-methoxyphenyl)-2,4-pyrimidinediamine]: 8.62 µM; for `CCOC(=O)CN(c1ccc(OC)c(Cl)c1)c1nc(Nc2ccc(C)c(S(N)(=O)=O)c2)ncc1C(=O)OCC` [VI-25, N2-(3-Aminosulfonyl-4-methylphenyl)-5-carboethoxy-N4-(N-carboethoxymethylene-N-3-chloro-4-methoxyphenyl)-2,4-pyrimidinediamine]: 9.91 µM; for `COc1ccc(Nc2nc(Nc3cccc(S(N)(=O)=O)c3)ncc2C#C[Si](C)(C)C)cc1Cl` [VI-28, N2-(3-Aminosulfonylphenyl)-N4-(3-chloro-4-methoxyphenyl)-5-trimethylsilylacetylene-2,4-pyrimidinediamine]: 0.754 µM.

For `C#CCOc1ccc(Nc2nc(Nc3ccc(C)c(S(=O)(=O)NC(=O)CC)c3)ncc2F)cc1` [VI-56, 5-Fluoro-N2-(4-methyl-3-propionylaminosulfonylphenyl)-N4-[4-(prop-2-ynyloxy)phenyl]-2,4-pyrimidinediamine], the IC50 worked out at 9.66 µM.

Staying with this assay, now noted: Ramos B cells stimulated with IL-4, CD23 expression by FACS; sodium salt; read-out: IC50, Example 41.
`CCC(=O)NS(=O)(=O)c1cccc(Nc2ncc(F)c(Nc3ccc(CCOC(=O)N(C)C)cc3)n2)c1` [VI-66, N4-{4-[2-(Dimethylaminocarbonyloxy)ethyl]phenyl}-5-fluoro-N2-(3-propionylaminosulfonylphenyl)-2,4-pyrimidinediamine sodium salt]: the IC50 is 6.09 µM. Same read-out and setting: the same measure for `CCC(=O)NS(=O)(=O)c1cc(Nc2ncc(F)c(Nc3ccc(CCC#N)c(C)c3)n2)ccc1C` [VI-104, N4-[4-(2-Cyanoethyl)-3-methylphenyl]-5-fluoro-N2-(4-methyl-3-propionylaminosulfonylphenyl)-2,4-pyrimidinediamine Sodium Salt]: 1.98 µM.

These data come from US11827628B2, “Compositions and methods for inhibition of the JAK pathway” (Rigel Pharmaceuticals, Inc., priority 2005, dated 2023).
